Laboratory results from ChEMBL document CHEMBL1201862, “PubChem BioAssay data set” (2004).
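Following 48 hours of exposure in 96-well plates, responses at five concentrations were used to interpolate endpoints linearly. GI50: concentration for 50% inhibition of growth.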 Calls of active or inactive are those of the source. No stated cut-off is given here; in the data, active = GI50 up to about 1.1 µM and inactive = higher.

Key:
Experiment in all cases: NCI tumour cell line growth inhibition, 48 h
MCF7 = system: MCF7
786-0 = system: 786-0
HT-29 = system: HT-29
RPMI-8226 = system: RPMI-8226
SF-295 = system: SF-295
MDA-MB-231 = system: MDA-MB-231
LOX IMVI = system: LOX IMVI
NCI-H460 = system: NCI-H460
Malme-3M = system: Malme-3M
NCI/ADR-RES = system: NCI/ADR-RES
MOLT-4 = system: MOLT-4
SK-OV-3 = system: SK-OV-3
HCC 2998 = system: HCC 2998
RXF 393 = system: RXF 393
OVCAR-3 = system: OVCAR-3
CAKI-1 = system: CAKI-1
SK-MEL-28 = system: SK-MEL-28
SNB-75 = system: SNB-75
UO-31 = system: UO-31
UACC-257 = system: UACC-257
SN12C = system: SN12C
Hs-578T = system: Hs-578T
MDA-N = system: MDA-N
OVCAR-5 = system: OVCAR-5
DU-145 = system: DU-145
SR = system: SR
K562 = system: K562
SF-539 = system: SF-539
SF-268 = system: SF-268
SW-620 = system: SW-620
SNB-19 = system: SNB-19
HCT-116 = system: HCT-116
SK-MEL-5 = system: SK-MEL-5
OVCAR-4 = system: OVCAR-4
HL-60 = system: HL-60
U-251 = system: U-251
ACHN = system: ACHN
M14 = system: M14
NCI-H226 = system: NCI-H226
KM12 = system: KM12
CCRF-CEM = system: CCRF-CEM
PC-3 = system: PC-3
NCI-H23 = system: NCI-H23
HOP-62 = system: HOP-62
HCT-15 = system: HCT-15
COLO 205 = system: COLO 205
A549 = system: A549
BT-549 = system: BT-549
OVCAR-8 = system: OVCAR-8
MDA-MB-435 = system: MDA-MB-435
EKVX = system: EKVX
IGROV-1 = system: IGROV-1
UACC-62 = system: UACC-62
A498 = system: A498
TK-10 = system: TK-10
T47D = system: T47D
HOP-92 = system: HOP-92
NCI-H522 = system: NCI-H522
SK-MEL-2 = system: SK-MEL-2

COc1ccc(OC)c(CCc2cc(OC)ccc2OC)c1
GI50 (MCF7): 0.358 µM (active) | GI50 (786-0): 3.17 µM (inactive) | GI50 (HT-29): 1.06 µM (active) | GI50 (RPMI-8226): 2.82 µM (inactive) | GI50 (SF-295): 2.11 µM (inactive) | GI50 (MDA-MB-231): 3.66 µM (inactive) | GI50 (LOX IMVI): 0.676 µM (active) | GI50 (NCI-H460): 1.71 µM (inactive) | GI50 (Malme-3M): 0.369 µM (active) | GI50 (NCI/ADR-RES): 0.885 µM (active) | GI50 (MOLT-4): 1.91 µM (inactive) | GI50 (SK-OV-3): 4.33 µM (inactive) | GI50 (HCC 2998): 3.79 µM (inactive) | GI50 (RXF 393): 2.58 µM (inactive) | GI50 (OVCAR-3): 0.431 µM (active) | GI50 (CAKI-1): 3.92 µM (inactive) | GI50 (SK-MEL-28): 3.28 µM (inactive) | GI50 (SNB-75): 2.41 µM (inactive) | GI50 (UO-31): 5.55 µM (inactive) | GI50 (UACC-257): 5.38 µM (inactive) | GI50 (SN12C): 6.98 µM (inactive) | GI50 (Hs-578T): 2.69 µM (inactive) | GI50 (MDA-N): 0.234 µM (active) | GI50 (OVCAR-5): > 8.71 µM (inactive) | GI50 (DU-145): 5.19 µM (inactive) | GI50 (SR): 0.379 µM (active) | GI50 (K562): 0.912 µM (active) | GI50 (SF-539): 2.07 µM (inactive) | GI50 (SF-268): 7.76 µM (inactive) | GI50 (SW-620): 0.935 µM (active) | GI50 (SNB-19): 4.8 µM (inactive) | GI50 (HCT-116): 0.59 µM (active) | GI50 (SK-MEL-5): 0.324 µM (active) | GI50 (OVCAR-4): > 10 µM (inactive) | GI50 (HL-60): 1.5 µM (inactive) | GI50 (U-251): 4.81 µM (inactive) | GI50 (ACHN): > 6.93 µM (inactive) | GI50 (M14): 2.09 µM (inactive) | GI50 (NCI-H226): 5.33 µM (inactive) | GI50 (KM12): 0.12 µM (active) | GI50 (CCRF-CEM): 2.9 µM (inactive) | GI50 (PC-3): 2.3 µM (inactive) | GI50 (NCI-H23): 3.18 µM (inactive) | GI50 (HOP-62): 3.73 µM (inactive) | GI50 (HCT-15): 0.34 µM | GI50 (COLO 205): 1.29 µM (inactive) | GI50 (A549): 5.28 µM (inactive) | GI50 (BT-549): > 5.4 µM (inactive) | GI50 (OVCAR-8): 2.86 µM (inactive) | GI50 (MDA-MB-435): 0.174 µM (active) | GI50 (EKVX): 7.53 µM (inactive) | GI50 (IGROV-1): 1.69 µM (inactive) | GI50 (UACC-62): 2.63 µM (inactive) | GI50 (A498): 4.48 µM (inactive) | GI50 (TK-10): 3.42 µM (inactive) | GI50 (T47D): > 2.12 µM (inactive) | GI50 (HOP-92): > 10 µM (inactive) | GI50 (NCI-H522): 1.39 µM (inactive) | GI50 (SK-MEL-2): 1.49 µM (inactive)

O=C1/C(=C\c2ccccc2)c2ccccc2N1Cc1ccccc1
GI50 (MCF7): 3.45 µM (inactive) | GI50 (786-0): 7.01 µM (inactive) | GI50 (HT-29): 6.15 µM (inactive) | GI50 (RPMI-8226): 2.74 µM (inactive) | GI50 (SF-295): 11.4 µM (inactive) | GI50 (MDA-MB-231): 6.89 µM (inactive) | GI50 (LOX IMVI): 7.45 µM (inactive) | GI50 (NCI-H460): 12.8 µM (inactive) | GI50 (Malme-3M): 6.92 µM (inactive) | GI50 (NCI/ADR-RES): 10.6 µM (inactive) | GI50 (MOLT-4): 2.67 µM (inactive) | GI50 (SK-OV-3): 11.1 µM (inactive) | GI50 (HCC 2998): 11.8 µM (inactive) | GI50 (RXF 393): 10.4 µM (inactive) | GI50 (OVCAR-3): 3.99 µM (inactive) | GI50 (CAKI-1): 6.67 µM (inactive) | GI50 (SK-MEL-28): 11.1 µM (inactive) | GI50 (SNB-75): 9.66 µM (inactive) | GI50 (UO-31): 10 µM (inactive) | GI50 (UACC-257): 10.9 µM (inactive) | GI50 (SN12C): 11.9 µM (inactive) | GI50 (Hs-578T): 5.14 µM (inactive) | GI50 (MDA-N): 5.18 µM (inactive) | GI50 (OVCAR-5): 10.4 µM (inactive) | GI50 (DU-145): 12.4 µM (inactive) | GI50 (SR): 2.04 µM (inactive) | GI50 (K562): 2.88 µM (inactive) | GI50 (SF-539): > 10 µM (inactive) | GI50 (SF-268): 9.25 µM (inactive) | GI50 (SW-620): 9.84 µM (inactive) | GI50 (SNB-19): 10.3 µM (inactive) | GI50 (HCT-116): 4.72 µM (inactive) | GI50 (SK-MEL-5): 11 µM (inactive) | GI50 (OVCAR-4): 12.6 µM (inactive) | GI50 (HL-60): 4.08 µM (inactive) | GI50 (U-251): 8.69 µM (inactive) | GI50 (ACHN): 12.5 µM (inactive) | GI50 (M14): 9.16 µM (inactive) | GI50 (NCI-H226): 10.8 µM (inactive) | GI50 (KM12): 6.04 µM (inactive) | GI50 (CCRF-CEM): 3.15 µM (inactive) | GI50 (PC-3): 11.1 µM (inactive) | GI50 (NCI-H23): 10.7 µM (inactive) | GI50 (HOP-62): 13.1 µM (inactive) | GI50 (HCT-15): 9.46 µM | GI50 (COLO 205): 16.6 µM (inactive) | GI50 (A549): 11.6 µM (inactive) | GI50 (BT-549): 3.61 µM (inactive) | GI50 (OVCAR-8): 11.6 µM (inactive) | GI50 (MDA-MB-435): 3.72 µM (inactive) | GI50 (EKVX): 12.5 µM (inactive) | GI50 (IGROV-1): 10.7 µM (inactive) | GI50 (UACC-62): 7.1 µM (inactive) | GI50 (A498): > 10 µM (inactive) | GI50 (TK-10): 12.9 µM (inactive) | GI50 (T47D): 6.61 µM (inactive) | GI50 (HOP-92): 3.85 µM (inactive) | GI50 (NCI-H522): 10.1 µM (inactive) | GI50 (SK-MEL-2): 12.2 µM (inactive)

Brc1ccc2c([C@H]3CN[C@@H](c4c[nH]c5cc(Br)ccc45)CN3)c[nH]c2c1
GI50 (MCF7): 1.9 µM (inactive) | GI50 (786-0): 1.65 µM (inactive) | GI50 (HT-29): 1.92 µM (inactive) | GI50 (RPMI-8226): 2.48 µM (inactive) | GI50 (SF-295): 7.1 µM (inactive) | GI50 (MDA-MB-231): 1.8 µM (inactive) | GI50 (LOX IMVI): 1.83 µM (inactive) | GI50 (NCI-H460): 1.9 µM (inactive) | GI50 (Malme-3M): 2.56 µM (inactive) | GI50 (NCI/ADR-RES): 4.9 µM (inactive) | GI50 (MOLT-4): 2.29 µM (inactive) | GI50 (SK-OV-3): 8.99 µM (inactive) | GI50 (HCC 2998): 1.62 µM (inactive) | GI50 (RXF 393): 2.4 µM (inactive) | GI50 (OVCAR-3): 1.94 µM (inactive) | GI50 (CAKI-1): 2.94 µM (inactive) | GI50 (SK-MEL-28): 14.2 µM (inactive) | GI50 (SNB-75): 5.27 µM (inactive) | GI50 (UO-31): 4.16 µM (inactive) | GI50 (UACC-257): 14.9 µM (inactive) | GI50 (SN12C): 5.19 µM (inactive) | GI50 (Hs-578T): 7.62 µM (inactive) | GI50 (MDA-N): 1.66 µM (inactive) | GI50 (OVCAR-5): 4.95 µM (inactive) | GI50 (DU-145): 2.96 µM (inactive) | GI50 (SR): 2.27 µM (inactive) | GI50 (K562): 1.74 µM (inactive) | GI50 (SF-539): 2.89 µM (inactive) | GI50 (SF-268): 6.79 µM (inactive) | GI50 (SW-620): 1.71 µM (inactive) | GI50 (SNB-19): 9.14 µM (inactive) | GI50 (HCT-116): 1.66 µM (inactive) | GI50 (SK-MEL-5): 4.91 µM (inactive) | GI50 (OVCAR-4): 1.9 µM (inactive) | GI50 (HL-60): 1.95 µM (inactive) | GI50 (U-251): 2 µM (inactive) | GI50 (ACHN): 2.94 µM (inactive) | GI50 (M14): 2.24 µM (inactive) | GI50 (NCI-H226): 7.26 µM (inactive) | GI50 (KM12): 1.7 µM (inactive) | GI50 (CCRF-CEM): 2.84 µM (inactive) | GI50 (PC-3): 3.9 µM (inactive) | GI50 (NCI-H23): 2.54 µM (inactive) | GI50 (HOP-62): 11.6 µM (inactive) | GI50 (HCT-15): 3.83 µM | GI50 (COLO 205): 1.57 µM (inactive) | GI50 (A549): 2.8 µM (inactive) | GI50 (BT-549): 12.3 µM (inactive) | GI50 (OVCAR-8): 1.84 µM (inactive) | GI50 (MDA-MB-435): 1.72 µM (inactive) | GI50 (EKVX): 10.5 µM (inactive) | GI50 (IGROV-1): 3.19 µM (inactive) | GI50 (UACC-62): 9.82 µM (inactive) | GI50 (A498): 1.87 µM (inactive) | GI50 (TK-10): 7.33 µM (inactive) | GI50 (T47D): 5.47 µM (inactive) | GI50 (HOP-92): 3.24 µM (inactive) | GI50 (NCI-H522): 1.57 µM (inactive) | GI50 (SK-MEL-2): 5.07 µM (inactive)
